System: 616215-338-R-J1-PDC complex spheroid viability
Test: Anticancer human tumor 616215-338-R-J1-PDC patient-derived colon adenocarcinoma cell line growth inhibition [RAS]
Settings: for IC50: curve of first compound; for viability, T/C: stronger effect = lower value; active means viability on the fitted dose curve at most 10% of control; inactive means the rest
Method in brief: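 Agents were tested in combination matrices in half-log decrements from a top concentration at or near clinical Cmax (10 microM if undetermined). Targets were multi-cell spheroids of tumour lines plus HUVEC and MSC stromal cells.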

[1] = second compound 0.000949 µM, first compound 0.0316 µM
[2] = second compound 0.000949 µM, first compound 0.1 µM
[3] = second compound 0.000949 µM, first compound 0.316 µM
[4] = second compound 0.000949 µM, first compound 1 µM
[5] = second compound 0.000949 µM, first compound 3.16 µM
[6] = second compound 0.000949 µM, first compound 10 µM
[7] = second compound 0.003 µM, first compound 0.0316 µM
[8] = second compound 0.003 µM, first compound 0.1 µM
[9] = second compound 0.003 µM, first compound 0.316 µM
[10] = second compound 0.003 µM, first compound 1 µM
[11] = second compound 0.003 µM, first compound 3.16 µM
[12] = second compound 0.003 µM, first compound 10 µM
[13] = second compound 0.00949 µM, first compound 0.0316 µM
[14] = second compound 0.00949 µM, first compound 0.1 µM
[15] = second compound 0.00949 µM, first compound 0.316 µM
[16] = second compound 0.00949 µM, first compound 1 µM
[17] = second compound 0.00949 µM, first compound 3.16 µM
[18] = second compound 0.00949 µM, first compound 10 µM
[19] = second compound 0.03 µM, first compound 0.0316 µM
[20] = second compound 0.03 µM, first compound 0.1 µM
[21] = second compound 0.03 µM, first compound 0.316 µM
[22] = second compound 0.03 µM, first compound 1 µM
[23] = second compound 0.03 µM, first compound 3.16 µM
[24] = second compound 0.03 µM, first compound 10 µM
[25] = second compound 0.0949 µM, first compound 0.0316 µM
[26] = second compound 0.0949 µM, first compound 0.1 µM
[27] = second compound 0.0949 µM, first compound 0.316 µM
[28] = second compound 0.0949 µM, first compound 1 µM
[29] = second compound 0.0949 µM, first compound 3.16 µM
[30] = second compound 0.0949 µM, first compound 10 µM
[31] = second compound 0.3 µM, first compound 0.0316 µM
[32] = second compound 0.3 µM, first compound 0.1 µM
[33] = second compound 0.3 µM, first compound 0.316 µM
[34] = second compound 0.3 µM, first compound 1 µM
[35] = second compound 0.3 µM, first compound 3.16 µM
[36] = second compound 0.3 µM, first compound 10 µM
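Further: spheroids exposed to agents for seven days before viability readout.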
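Wherever viability, T/C is given: 100% = DMSO vehicle control viability.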

CC(=O)OC12COC1CC(O)C1(C)C(=O)C(O)C3=C(C)C(OC(=O)C(O)C(NC(=O)OC(C)(C)C)c4ccccc4)CC(O)(C(OC(=O)c4ccccc4)C21)C3(C)C (centres undefined) + CCn1c(-c2cc(N3CCN(C)CC3)cnc2C(C)OC)c2c3cc(ccc31)-c1csc(n1)CC(NC(=O)C1CC1C)C(=O)N1CCCC(N1)C(=O)OCC(C)(C)C2
inactive: viability, T/C [1] 27.1% | viability, T/C [2] 20.3% | viability, T/C [3] 18.9% | viability, T/C [4] 19.9% | viability, T/C [5] 20.7% | viability, T/C [6] 24% | viability, T/C [7] 22.3% | viability, T/C [8] 18.3% | viability, T/C [9] 15.9% | viability, T/C [10] 19.3% | viability, T/C [11] 18.8% | viability, T/C [12] 24% | viability, T/C [13] 18.5% | viability, T/C [14] 16.4% | viability, T/C [15] 13.3% | viability, T/C [16] 12% | viability, T/C [17] 17.2% | viability, T/C [18] 18.7% | viability, T/C [19] 15.6% | viability, T/C [20] 13.4% | viability, T/C [21] 13.1% | viability, T/C [22] 13.2% | viability, T/C [23] 14.5% | viability, T/C [24] 16.8% | viability, T/C [25] 15.4% | viability, T/C [26] 12.4% | viability, T/C [27] 10.8% | viability, T/C [28] 13.4% | viability, T/C [29] 13.5% | viability, T/C [30] 14% | viability, T/C [31] 14.9% | viability, T/C [32] 13.3% | viability, T/C [33] 10.7% | viability, T/C [34] 11.9% | viability, T/C [35] 13.9% | viability, T/C [36] 16.3%
< 31.6 nM: IC50 (second compound 0.000949 µM) | IC50 (second compound 0.003 µM) | IC50 (second compound 0.00949 µM) | IC50 (second compound 0.03 µM) | IC50 (second compound 0.0949 µM) | IC50 (second compound 0.3 µM)

CCC(CC)c1cc(NC2CCC(N)C2)n2nccc2n1 (centres undefined) + CCn1c(-c2cc(N3CCN(C)CC3)cnc2C(C)OC)c2c3cc(ccc31)-c1csc(n1)CC(NC(=O)C1CC1C)C(=O)N1CCCC(N1)C(=O)OCC(C)(C)C2
1830 nM: IC50 (second compound 0.000949 µM)
inactive: viability, T/C [1] 122% | viability, T/C [2] 113% | viability, T/C [3] 95% | viability, T/C [4] 105% | viability, T/C [7] 109% | viability, T/C [8] 108% | viability, T/C [9] 116% | viability, T/C [10] 110% | viability, T/C [13] 80.7% | viability, T/C [14] 92.2% | viability, T/C [15] 72.6% | viability, T/C [16] 88.4% | viability, T/C [19] 50.2% | viability, T/C [20] 55.3% | viability, T/C [21] 56.5% | viability, T/C [22] 62.5% | viability, T/C [25] 41.6% | viability, T/C [26] 39.9% | viability, T/C [27] 51.1% | viability, T/C [28] 49.3% | viability, T/C [31] 30.5% | viability, T/C [32] 38.5% | viability, T/C [33] 45.7% | viability, T/C [34] 47.9%
1880 nM: IC50 (second compound 0.003 µM)
active: viability, T/C [5] 0.4% | viability, T/C [6] 0.24% | viability, T/C [11] 0.37% | viability, T/C [12] 0.22% | viability, T/C [17] 0.29% | viability, T/C [18] 0.22% | viability, T/C [23] 0.28% | viability, T/C [24] 0.2% | viability, T/C [29] 0.28% | viability, T/C [30] 0.23% | viability, T/C [35] 0.33% | viability, T/C [36] 0.27%
1590 nM: IC50 (second compound 0.00949 µM)
1130 nM: IC50 (second compound 0.03 µM)
< 31.6 nM: IC50 (second compound 0.0949 µM) | IC50 (second compound 0.3 µM)

From PubChem BioAssay AID2060898 (Molecular Pharmacology Branch, DTP, NCI, 2025)
